Source: patent US10329336B2, “Antimicrobial kinocidin compositions and methods of use” (LA Biomedical Research Institute at Harbor-UCLA Medical …, priority 2006, dated 2019)

What was measured:
[1] = tested on: Escherichia coli strain ML-35; assay: Ex vivo biomatrix assay in human whole blood, plasma and serum; type: cell-based
Source text: FIG. 18A-B show antimicrobial efficacy of IL-8α in human blood and blood-derived matrices as compared with artificial media (MHB) at pH 5.5 and 7.2. […] The E. coli inocula (INOC) were 10^5 CFU/ml, and the threshold of sensitivity was considered 0.3 log 10 CFU/ml.
To assess the physiological relevance of the observed in vitro (solid and solution-phase) antimicrobial activity for IL-8 and IL-8α, we assessed the efficacy of IL-8α in the ex vivo biomatrix assay. This assay has been developed to assess antimicrobial polypeptide efficacy in complex human blood matrices. Antimicrobial activity of IL-8α in human whole blood and homologous plasma and serum fractions was assessed (Yeaman, M. R., Gank, K. D., Bayer, A. S., and Brass, E. P. (2002) Antimicrob Agents Chemother 46, 3883-3891). For biomatrix studies, the well-characterized Escherichia coli strain ML-35 was used as the target organism (Lehrer, R. I., Barton, A., Daher, K, A., Harwig, S. S., Ganz, T., and Selsted, M. E. (1989) J Clin Invest 84, 553-561). This strain is resistant to serum, ideal for use in assessing peptide antimicrobial activity in blood and blood-derived matrices (Yeaman, M. R., Gank, K. D., Bayer, A. S., and Brass, E. P. (2002) Antimicrob Agents Chemother 46, 3883-3891). Organisms were cultured to mid-logarithmic phase in brain-heart infusion broth (Difco Laboratories, Detroit, Mich.) at 37° C., washed, and resuspended in PBS (Irvine Scientific; pH 7.2). Inocula were quantified spectrophotometrically and validated by quantitative culture. Biomatrices were distributed in 85-l aliquots into 96-well microtiter plates (Corning Glass Works, Corning, N.Y.) Peptide (5l; concentration range 1.0-50.0 μg/ml) was added either simultaneously with the microorganism (10 μl; 10^5 CFU/ml), or after a 120 min pre-incubation period in the biomatrix. The mixtures were incubated with constant agitation for 2 h at 37° C. After incubation, aliquots were diluted and quantitatively cultured in triplicate onto blood agar. Surviving organisms were enumerated as CFU/ml. […]

C. albicans ATCC 36082 = assay: Solution-phase microbicidal assay; type: cell-based, Candida albicans
Description: One million CFU of the indicated microorganism per milliliter were incubated with peptide (0.00125-20.0 nmol/ml) in either MES (2.0 mM, pH 5.5) or PIPES (10.0 mM, pH 7.5) for one hour at 37° C. Surviving CFU were enumerated and are described as change in the initial log 10 CFU. ∘, S. aureus ATCC 27217; ●, S. typhimurium strain 5990s; □, C. albicans ATCC 36082. Data are means±SD (minimum n=2).
(§1) Briefly, the antimicrobial assays were performed against a panel of prototype human pathogens as previously detailed (Yoshimura, T., Matsushima, K., Tanaka, S., Robinson, E. A., Appella, E., Oppenheim, J. J. & Leonard, E. J. (1987) Proc Natl Acad Sci USA 84, 9233-7): Staphylococcus aureus (ATCC 27217; Gram-positive bacterium); Salmonella typhimurium (5996s; Gram-negative bacterium); and the fungus Candida albicans (ATCC 36082). Defensin HNP-1 was included in each assay as an internal control, and all assays were conducted a minimum of two independent times. Results of independent assays were analyzed using Wilcoxon Rank Sum analysis with Bonferroni correction for multiple comparisons.
To characterize IL-8's antimicrobial activity in more detail, a quantitative solution-phase assay was carried out at pH 5.5 and 7.5. Organisms were prepared and adjusted to 10^6 CFU/ml in PIPES or MES buffer as above but lacking agarose, and dispensed (5×10^4 CFU per 50 μl aliquot). Peptide (concentration range, 20-0.00125 nmol/ml) was introduced into the assay medium, and incubated for 1 hour at 37° C. After incubation, media were serially diluted and plated in triplicate for enumeration. […] IL-8 was also fungicidal for C. albicans at pH 7.5, with a 2-log reduction in surviving CFU over 1 hour at a concentration of 2.5 nmol/ml.

[2] = tested on: Candida albicans (ATCC 36082); assay: Solid-phase antimicrobial assay of kinocidins; type: cell-based; settings: C. albicans; pH 5.5 or 7.5, not separated; 0.5 nmol/well
Description: (§2) Peptides (0.5 nmol) were introduced into wells in agarose plates buffered with MES (2.0 mM, pH 5.5) or PIPES (10.0 mM, pH 7.5). Antimicrobial activity was assessed as the zone of complete (blue) or partial (red) inhibition around the well. Abbreviations are: Native IL-8 (IL-8); IL-8α, (α); IL-8γ, (γ); IL-8α+IL-8γ (α+γ); RANTES, (RAN); GRO-α, (GRO); MCP-1, (MCP); lymphotactin, (LYM); platelet factor-4, (PF-4); and HNP-1, (HNP). Histograms are means±SEM (minimum n=2).
as §1
(§3) For the Solid-Phase Assay, mid-logarithmic phase organisms were prepared, introduced into buffered agarose (PIPES [10 mM, pH 7.5] or MES [2.0 mM, pH 5.5]) to achieve final inocula of 10^6 CFU/ml, and poured into plates. Peptides (0.5 nmol/well [50 nmol/ml]) were added to wells in the seeded matrix, and incubated for 3h at 37° C. Nutrient overlay medium was applied, and assays incubated at 37° C. or 30° C. for bacteria or fungi, respectively. After 24h, zones of inhibition were measured, and results recorded as zones of complete or partial inhibition.

[3] = tested on: Salmonella typhimurium (5996s); assay: Solid-phase antimicrobial assay of kinocidins; type: cell-based; settings: S. typhimurium (Gram-negative); pH 5.5 or 7.5, not separated; 0.5 nmol/well
Description: as §2, §1, §3

[4] = tested on: Staphylococcus aureus (ATCC 27217); assay: Solid-phase antimicrobial assay of kinocidins; type: cell-based; settings: S. aureus (Gram-positive); pH 5.5 or 7.5, not separated; 0.5 nmol/well
Description: as §2, §1, §3

KENWVQRVVEKFLKRAENS [IL-8α, synthetic α-helix domain of IL-8 (CXCL8)]
decrease in E. coli CFU ([1]; 10 μg/ml peptide, human blood and blood-derived matrices, 2 h at 37° C.): ≤ 5 log CFU/ml | antimicrobial efficacy in biomatrix ([1]; plasma fractions or after 2 hour preincubation): less activity | antimicrobial efficacy in biomatrix ([1]; whole blood and serum, co-incubation): Greatest efficacy | activity relative to native IL-8, by mass (C. albicans ATCC 36082; C. albicans, solution-phase): 10 fold | reduction in surviving C. albicans (C. albicans ATCC 36082; pH 5.5, 0.125 nmol/ml (1.0 μg/ml), 1 hour exposure): five | antifungal activity (zone of inhibition) [2]: virtually indistinguishable from that of the native molecule | antimicrobial activity (zone of inhibition) [3]: virtually indistinguishable from that of the native molecule | antimicrobial activity (zone of inhibition) [4]: virtually indistinguishable from that of the native molecule
